Measurements taken from patent publication US9963434B2, “N-arylmethyl sulfonamide negative modulators of NR2A” (LUC THERAPEUTICS, priority 2013, dated 2018).
Like-named read-outs stand apart in the source and are kept apart here.

Molecular target: NR1/NR2A (Homo sapiens (Human), UniProt Q05586+Q12879)
Assay: FDSS Ca2+ influx inhibition assay in HEK293 cells expressing NR1/NR2A
Assay type: cell-based
Details: 3 μM glutamate, 3 μM glycine, 1 mM Ca2+
Protocol: Cell Culture and plating: HEK293 cells expressing NR1/NR2A (Chantest, Cleveland, Ohio) were grown to 70-80% confluency as an adherent monolayer in standard tissue culture flasks at 37° C., 5% CO2 per supplier's instructions.
After induction, cell culture medium was removed and cells were rinsed once with Ca^2+ and Mg^2+-free Dulbecco's phosphate buffered saline. Cells were then removed from the flask using TrypLE™ Express (Life Technologies) according to the manufacturer's instructions and collected to 50 ml centrifuge tubes. Following two washes in Ca^2+/Mg^2+-free HBSS with 20 mM HEPES (HHnoCa), cells were counted and viability assessed using trypan blue. To load cells with Ca^2+-sensitive dye, they were resuspended in fluo-8 plus Component B (AAT Bioquest Products) diluted in HHnoCa and incubated 15 minutes at 37° C., followed by 30 minutes at room temp (in dark). Cells were then washed and resuspended in HHnoCa to remove extracellular dye and plated in 384-well plates (Falcon, uncoated) at 20,000-30,000 cells/well in a final volume of 25 μL/well.
FDSS Assay: To each well of the plate, 10 μL test compound, control (MK801) or HHnoCa buffer was added to a final concentration of 10 μM with a final concentration of DMSO of 0.1%. Following 10 minutes pre-incubation in the dark, plates are loaded onto the Hamamatsu FDSS 6000. After collecting baseline fluorescence images, 3 μM glutamate, 3 μM glycine, and 1 mM Ca^2+ in HHnoCa buffer is added to each well, and Ca^2+ is recorded for 3 minutes. Data were processed by computing ratio of fluorescence at the end of data collection to baseline fluorescence to assess degree of Ca^2+ influx inhibition relative to that observed in MK801.

[1] = inhibition relative to MK801, read-out: NR2A IC50

Sequence of NR1/NR2A (Q12879 23-1464, other chains not shown): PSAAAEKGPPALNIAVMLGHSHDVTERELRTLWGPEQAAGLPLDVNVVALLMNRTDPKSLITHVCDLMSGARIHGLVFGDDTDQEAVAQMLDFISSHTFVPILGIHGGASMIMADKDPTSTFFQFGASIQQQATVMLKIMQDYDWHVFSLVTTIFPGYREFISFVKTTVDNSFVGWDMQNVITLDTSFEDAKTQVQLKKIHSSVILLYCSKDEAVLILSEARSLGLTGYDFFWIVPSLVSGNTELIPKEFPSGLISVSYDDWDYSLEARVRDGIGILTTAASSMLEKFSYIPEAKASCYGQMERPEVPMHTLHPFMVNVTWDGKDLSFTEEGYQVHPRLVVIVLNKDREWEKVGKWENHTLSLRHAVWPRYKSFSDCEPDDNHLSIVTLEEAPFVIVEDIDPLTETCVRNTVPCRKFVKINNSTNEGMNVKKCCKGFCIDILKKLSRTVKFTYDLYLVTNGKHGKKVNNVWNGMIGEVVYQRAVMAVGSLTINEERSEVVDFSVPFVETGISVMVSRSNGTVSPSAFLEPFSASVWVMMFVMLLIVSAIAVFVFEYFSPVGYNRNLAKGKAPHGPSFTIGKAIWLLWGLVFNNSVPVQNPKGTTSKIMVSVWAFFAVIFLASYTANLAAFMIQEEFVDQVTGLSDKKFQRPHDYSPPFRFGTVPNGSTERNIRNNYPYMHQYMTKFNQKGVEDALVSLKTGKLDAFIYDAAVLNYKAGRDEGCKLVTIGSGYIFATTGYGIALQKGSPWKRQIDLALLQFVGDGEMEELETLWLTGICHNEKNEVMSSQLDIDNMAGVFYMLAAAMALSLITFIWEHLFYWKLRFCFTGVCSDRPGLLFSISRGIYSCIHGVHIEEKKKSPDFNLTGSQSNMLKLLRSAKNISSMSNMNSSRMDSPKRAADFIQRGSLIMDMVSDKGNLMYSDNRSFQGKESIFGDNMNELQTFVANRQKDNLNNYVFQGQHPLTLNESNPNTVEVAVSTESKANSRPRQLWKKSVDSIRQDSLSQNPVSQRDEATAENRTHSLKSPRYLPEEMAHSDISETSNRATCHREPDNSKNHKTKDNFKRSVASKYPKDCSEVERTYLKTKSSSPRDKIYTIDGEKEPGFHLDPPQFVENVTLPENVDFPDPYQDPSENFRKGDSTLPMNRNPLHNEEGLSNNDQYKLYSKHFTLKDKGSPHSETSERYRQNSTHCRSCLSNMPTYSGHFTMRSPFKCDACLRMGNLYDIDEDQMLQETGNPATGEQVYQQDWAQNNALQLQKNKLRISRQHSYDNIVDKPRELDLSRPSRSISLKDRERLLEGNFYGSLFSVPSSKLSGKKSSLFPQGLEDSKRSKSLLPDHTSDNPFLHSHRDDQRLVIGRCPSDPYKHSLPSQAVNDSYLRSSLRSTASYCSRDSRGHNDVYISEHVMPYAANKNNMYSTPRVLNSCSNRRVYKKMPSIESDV

## Cc1ccc(CNC(=O)c2cnc(CNS(=O)(=O)c3ccc(F)c(Cl)c3)cn2)n1C [5-(3-chloro-4-fluorobenzenesulfon-amidomethyl)-N-[(1,5-dimethyl-1H-pyrrol-2-yl)methyl]pyrazine-2-carboxamide]
read-out: Binned Activity
  IC50: 0.1 to 1 µM

## Cn1ccnc1CNC(=O)c1cnc(CNS(=O)(=O)c2ccc(F)c(Cl)c2)cn1 [5-(3-chloro-4-fluorobenzenesulfon-amidomethyl)-N-[(1-methyl-1H-imidazol-2-yl)methyl]pyrazine-2-carboxamide]
[1]
  IC50: 10 µM
read-out: Binned Activity
  IC50: > 10 µM

## Cn1cnc(CNC(=O)c2cnc(CNS(=O)(=O)c3ccc(F)c(Cl)c3)cn2)c1 [5-(3-chloro-4-fluorobenzenesulfon-amidomethyl)-N-[(1-methyl-1H-imidazol-4-yl)methyl]pyrazine-2-carboxamide]
[1]
  IC50: 10 µM
read-out: Binned Activity
  IC50: > 10 µM

## Cn1cnc(CNC(=O)c2ccc(CNS(=O)(=O)c3ccc(F)c(Cl)c3)cn2)c1 [5-(3-chloro-4-fluorobenzenesulfon-amidomethyl)-N-[(1-methyl-1H-imidazol-4-yl)methyl]pyridine-2-carboxamide]
[1]
  IC50: 10 µM
read-out: Binned Activity
  IC50: > 10 µM

## Cn1cncc1CNC(=O)c1cnc(CNS(=O)(=O)c2ccc(F)c(Cl)c2)cn1 [5-(3-chloro-4-fluorobenzenesulfon-amidomethyl)-N-[(1-methyl-1H-imidazol-5-yl)methyl]pyrazine-2-carboxamide]
read-out: Binned Activity
  IC50: 1 to 10 µM

## Cn1cncc1CNC(=O)c1ccc(CNS(=O)(=O)c2ccc(F)c(Cl)c2)cn1 [5-(3-chloro-4-fluorobenzenesulfon-amidomethyl)-N-[(1-methyl-1H-imidazol-5-yl)methyl]pyridine-2-carboxamide]
read-out: Binned Activity
  IC50: 1 to 10 µM

## Cn1cc(CNC(=O)c2ccc(CNS(=O)(=O)c3ccc(F)c(Cl)c3)cn2)cn1 [5-(3-chloro-4-fluorobenzenesulfon-amidomethyl)-N-[(1-methyl-1H-pyrazol-4-yl)methyl]pyridine-2-carboxamide]
read-out: Binned Activity
  IC50: 1 to 10 µM

## Cn1nccc1CNC(=O)c1cnc(CNS(=O)(=O)c2ccc(F)c(Cl)c2)cn1 [5-(3-chloro-4-fluorobenzenesulfon-amidomethyl)-N-[(1-methyl-1H-pyrazol-5-yl)methyl]pyrazine-2-carboxamide]
[1]
  IC50: 10 µM
read-out: Binned Activity
  IC50: > 10 µM

## Cn1nccc1CNC(=O)c1ccc(CNS(=O)(=O)c2ccc(F)c(Cl)c2)cn1 [5-(3-chloro-4-fluorobenzenesulfon-amidomethyl)-N-[(1-methyl-1H-pyrazol-5-yl)methyl]pyridine-2-carboxamide]
[1]
  IC50: 10 µM
read-out: Binned Activity
  IC50: > 10 µM

## Cn1cccc1CNC(=O)c1cnc(CNS(=O)(=O)c2ccc(F)c(Cl)c2)cn1 [5-(3-chloro-4-fluorobenzenesulfon-amidomethyl)-N-[(1-methyl-1H-pyrrol-2-yl)methyl]pyrazine-2-carboxamide]
read-out: Binned Activity
  IC50: 1 to 10 µM

## Cn1cccc1CNC(=O)c1ccc(CNS(=O)(=O)c2ccc(F)c(Cl)c2)cn1 [5-(3-chloro-4-fluorobenzenesulfon-amidomethyl)-N-[(1-methyl-1H-pyrrol-2-yl)methyl]pyridine-2-carboxamide]
read-out: Binned Activity
  IC50: 1 to 10 µM

## C[C@@H](NC(=O)c1cnc(CNS(=O)(=O)c2ccc(F)c(Cl)c2)cn1)c1cncs1 [5-(3-chloro-4-fluorobenzenesulfon-amidomethyl)-N-[(1R)-1-(1,3-thiazol-5-yl)ethyl]pyrazine-2-carboxamide]
read-out: Binned Activity
  IC50: > 10 µM

## C[C@@H](NC(=O)c1ccc(CNS(=O)(=O)c2ccc(F)c(Cl)c2)cn1)c1cncs1 [5-(3-chloro-4-fluorobenzenesulfon-amidomethyl)-N-[(1R)-1-(1,3-thiazol-5-yl)ethyl]pyridine-2-carboxamide]
[1]
  IC50: 10 µM
read-out: Binned Activity
  IC50: > 10 µM

## COc1cc(CNC(=O)c2cnc(CNS(=O)(=O)c3ccc(F)c(Cl)c3)cn2)ccn1 [5-(3-chloro-4-fluorobenzenesulfon-amidomethyl)-N-[(2-methoxypyridin-4-yl)methyl]pyrazine-2-carboxamide]
read-out: Binned Activity
  IC50: 0.1 to 1 µM

## COc1cc(CNC(=O)c2ccc(CNS(=O)(=O)c3ccc(F)c(Cl)c3)cn2)ccn1 [5-(3-chloro-4-fluorobenzenesulfon-amidomethyl)-N-[(2-methoxypyridin-4-yl)methyl]pyridine-2-carboxamide]
read-out: Binned Activity
  IC50: 1 to 10 µM

## Cc1nc(CNC(=O)c2cnc(CNS(=O)(=O)c3ccc(F)c(Cl)c3)cn2)cs1 [5-(3-chloro-4-fluorobenzenesulfon-amidomethyl)-N-[(2-methyl-1,3-thiazol-4-yl)methyl]pyrazine-2-carboxamide]
[1]
  IC50: 10 µM
read-out: Binned Activity
  IC50: > 10 µM

## Cc1nc(CNC(=O)c2ccc(CNS(=O)(=O)c3ccc(F)c(Cl)c3)cn2)cs1 [5-(3-chloro-4-fluorobenzenesulfon-amidomethyl)-N-[(2-methyl-1,3-thiazol-4-yl)methyl]pyridine-2-carboxamide]
[1]
  IC50: 10 µM
read-out: Binned Activity
  IC50: > 10 µM

## Cc1ncc(CNC(=O)c2cnc(CNS(=O)(=O)c3ccc(F)c(Cl)c3)c(C(F)(F)F)n2)s1 [5-(3-chloro-4-fluorobenzenesulfon-amidomethyl)-N-[(2-methyl-1,3-thiazol-5-yl)methyl]-6-(trifluoromethyl)pyrazine-2-carboxamide]
read-out: Binned Activity
  IC50: 0.1 to 1 µM

## Cc1ncc(CNC(=O)c2ccc(CNS(=O)(=O)c3ccc(F)c(Cl)c3)cn2)s1 [5-(3-chloro-4-fluorobenzenesulfon-amidomethyl)-N-[(2-methyl-1,3-thiazol-5-yl)methyl]pyridine-2-carboxamide]
read-out: Binned Activity
  IC50: 0.1 to 1 µM

## Cc1ncc(CNC(=O)c2ncc(CNS(=O)(=O)c3ccc(F)c(Cl)c3)cn2)s1 [5-(3-chloro-4-fluorobenzenesulfon-amidomethyl)-N-[(2-methyl-1,3-thiazol-5-yl)methyl]pyrimidine-2-carboxamide]
[1]
  IC50: 10 µM
read-out: Binned Activity
  IC50: > 10 µM

## COc1ccc(CNC(=O)c2cnc(CNS(=O)(=O)c3ccc(F)c(Cl)c3)cn2)cc1 [5-(3-chloro-4-fluorobenzenesulfon-amidomethyl)-N-[(4-methoxyphenyl)methyl] pyrazine-2-carboxamide]
[1]
  IC50: 10 µM
read-out: Binned Activity
  IC50: > 10 µM

## COc1ccc(CNC(=O)c2ccc(CNS(=O)(=O)c3ccc(F)c(Cl)c3)cn2)cc1 [5-(3-chloro-4-fluorobenzenesulfon-amidomethyl)-N-[(4-methoxyphenyl)methyl] pyridine-2-carboxamide]
[1]
  IC50: 10 µM
read-out: Binned Activity
  IC50: > 10 µM

## Cc1csc(CNC(=O)c2cnc(CNS(=O)(=O)c3ccc(F)c(Cl)c3)cn2)n1 [5-(3-chloro-4-fluorobenzenesulfon-amidomethyl)-N-[(4-methyl-1,3-thiazol-2-yl)methyl]pyrazine-2-carboxamide]
[1]
  IC50: 10 µM

## Cc1csc(CNC(=O)c2ccc(CNS(=O)(=O)c3ccc(F)c(Cl)c3)cn2)n1 [5-(3-chloro-4-fluorobenzenesulfon-amidomethyl)-N-[(4-methyl-1,3-thiazol-2-yl)methyl]pyridine-2-carboxamide]
[1]
  IC50: 10 µM
read-out: Binned Activity
  IC50: > 10 µM

## Cc1ncsc1CNC(=O)c1cnc(CNS(=O)(=O)c2ccc(F)c(Cl)c2)cn1 [5-(3-chloro-4-fluorobenzenesulfon-amidomethyl)-N-[(4-methyl-1,3-thiazol-5-yl)methyl]pyrazine-2-carboxamide]
[1]
  IC50: 10 µM
read-out: Binned Activity
  IC50: > 10 µM

## Cc1ncsc1CNC(=O)c1ccc(CNS(=O)(=O)c2ccc(F)c(Cl)c2)cn1 [5-(3-chloro-4-fluorobenzenesulfon-amidomethyl)-N-[(4-methyl-1,3-thiazol-5-yl)methyl]pyridine-2-carboxamide]
[1]
  IC50: 10 µM
read-out: Binned Activity
  IC50: > 10 µM

## Cc1ccncc1CNC(=O)c1cnc(CNS(=O)(=O)c2ccc(F)c(Cl)c2)cn1 [5-(3-chloro-4-fluorobenzenesulfon-amidomethyl)-N-[(4-methylpyridin-3-yl)methyl]pyrazine-2-carboxamide]
read-out: Binned Activity
  IC50: 0.1 to 1 µM

## Cc1ccncc1CNC(=O)c1ccc(CNS(=O)(=O)c2ccc(F)c(Cl)c2)cn1 [5-(3-chloro-4-fluorobenzenesulfon-amidomethyl)-N-[(4-methylpyridin-3-yl)methyl]pyridine-2-carboxamide]
read-out: Binned Activity
  IC50: 0.1 to 1 µM

## O=C(NCc1cncc(F)c1)c1cnc(CNS(=O)(=O)c2ccc(F)c(Cl)c2)cn1 [5-(3-chloro-4-fluorobenzenesulfon-amidomethyl)-N-[(5-fluoropyridin-3-yl)methyl]pyrazine-2-carboxamide]
read-out: Binned Activity
  IC50: 1 to 10 µM

## Cc1nnc(CNC(=O)c2cnc(CNS(=O)(=O)c3ccc(F)c(Cl)c3)cn2)o1 [5-(3-chloro-4-fluorobenzenesulfon-amidomethyl)-N-[(5-methyl-1,3,4-oxadiazol-2-yl)methyl]pyrazine-2-carboxamide]
read-out: Binned Activity
  IC50: 1 to 10 µM

## Cc1nnc(CNC(=O)c2ccc(CNS(=O)(=O)c3ccc(F)c(Cl)c3)cn2)o1 [5-(3-chloro-4-fluorobenzenesulfon-amidomethyl)-N-[(5-methyl-1,3,4-oxadiazol-2-yl)methyl]pyridine-2-carboxamide]
read-out: Binned Activity
  IC50: 1 to 10 µM

## Cc1nnc(CNC(=O)c2cnc(CNS(=O)(=O)c3ccc(F)c(Cl)c3)cn2)s1 [5-(3-chloro-4-fluorobenzenesulfon-amidomethyl)-N-[(5-methyl-1,3,4-thiadiazol-2-yl)methyl]pyrazine-2-carboxamide]
read-out: Binned Activity
  IC50: 0.1 to 1 µM
